[UNA] = unlocked nucleic acid; d = 2'-deoxy (DNA); r = 2'-OH (RNA); f = 2'-fluoro
Legend:
[1] = UV thermal melting temperatures of mUNA 12-mer duplexes; assay type: physicochemical; conditions: for ΔTm (° C.): relative to unmodified duplex; for Tm (° C.)a / Tm (° C.)b: mUNA 12-mer duplexes, 2.0 μM each strand, pH 7.4
Excerpt: (§1) Values were reported as the maximum of the first derivative and are the average of at least two experiments.

[2] = UV thermal melting temperatures of TNA 12-mer duplexes; assay type: physicochemical; conditions: 1×PBS; for ΔTm (° C.): relative to unmodified duplex; for Tm (° C.): TNA 12-mer duplexes, 2.0 μM each strand, pH 7.4
Excerpt: Values were reported as the maximum of the first derivative and are the average of at least two experiments. […] The structures x and y are shown here:
as §1

| Substance | ΔTm (° C.) ([1]; 1x PBS) [°C] | ΔTm (° C.) ([1]; 8×PBS) [°C] | Tm (° C.)a ([1]; 1x PBS) [°C] | Tm (° C.)b ([1]; 8×PBS) [°C] | ΔTm (° C.) [2] [°C] | Tm (° C.) [2] [°C] |
| --- | --- | --- | --- | --- | --- | --- |
| AD-64366.2 (sense UACAGUCUAUGU; antisense ACAUAGACUGUA; RNA, backbone not given here) | 0.0 | 0.0 | 52.1 | 61.1 | – | – |
| AD-64366.3 (sense UACAGUCUAUGU; antisense ACAUAGACUGUA; RNA, backbone not given here) | – | – | – | – | 0 | 52.57 |
| AD-64366.4 (sense UACAGUCUAUGU; antisense ACAUAGACUGUA; RNA, backbone not given here) | – | – | – | – | 0 | 52.62 |
| AD-64367.2 (sense TACAGTCTATGT; antisense ACATAGACTGTA; DNA, backbone not given here) | – | 0.0 | 43.1 | 49.1 | – | – |
| AD-64367.3 (sense TACAGTCTATGT; antisense ACATAGACTGTA; DNA, backbone not given here) | – | – | – | – | 0 | 42.42 |
| AD-64367.4 (sense TACAGTCTATGT; antisense ACATAGACTGTA; DNA, backbone not given here) | – | – | – | – | 0 | 42.67 |
| AD-64980.2 (sense UACAGUCUAUGU; antisense ACAUAGACUGUA; siRNA; one 2'-fluoro U in sense strand, plain letters not given here, further chemistry not given here) | – | – | – | – | 0.52 | 53.14 |
| AD-64981.2 (sense TACAGUCTATGT; antisense ACATAGACTGTA; siRNA; sense: sugars from the 5' end d5 f1 d6, backbone not given here; antisense: DNA, backbone not given here) | – | – | – | – | −2.615 | 40.055 |
| AD-72585.2 (sense UACAGTCUAUGU; antisense ACAUAGACUGUA; siRNA; one TNA thymine in sense strand, plain letters not given here, further chemistry not given here) | – | – | – | – | −4.825 | 47.745 |
| AD-72586.2 (sense TACAGTCTATGT; antisense ACATAGACTGTA; siRNA; chemistry not fully specified) | – | – | – | – | 2.1 | 40.32 |
| AD-72587.2 (sense UACAGUCUAUGU; antisense ACAUAGACUGUA; siRNA; one TNA cytidine in sense strand, plain letters not given here, further chemistry not given here) | – | – | – | – | −5.45 | 47.12 |
| AD-511227.1 (sense UACAGUCUAUGU; antisense ACAUAGACUGUA; sense: sugars from the 5' end r5 [UNA]1 r6, backbone not given here; antisense: RNA, backbone not given here) | −16.6 | −17.5 | 35.5 | 43.6 | – | – |
| AD-511236.1 (sense TACAGUCTATGT; antisense ACATAGACTGTA; sense: chemistry not given here; antisense: DNA, backbone not given here; sense strand has one mUNA-type uridine (Uun)) | – | −25.5 | <30 | 23.6 | – | – |
| AD-511237.1 (sense UACAGUCUAUGU; antisense ACATAGACTGTA; sense: RNA, backbone not given here; antisense: DNA, backbone not given here) | – | 0.0 | 39.1 | 45.1 | – | – |
| AD-511246.1 (sense UACAGUCUAUGU; antisense ACATAGACTGTA; sense: chemistry not given here; antisense: DNA, backbone not given here; sense strand has one mUNA-type uridine (Uun)) | – | −20.5 | <30 | 24.6 | – | – |
| AD-511247.1 (sense TACAGTCTATGT; antisense ACAUAGACUGUA; sense: DNA, backbone not given here; antisense: RNA, backbone not given here) | – | 0.0 | 42.1 | 49.1 | – | – |
| AD-511256.1 (sense TACAGUCTATGT; antisense ACAUAGACUGUA; sense: chemistry not given here; antisense: RNA, backbone not given here; sense strand has one mUNA-type uridine (Uun)) | – | −20.6 | <30 | 28.6 | – | – |

| Substance | ΔTm (° C.) ([1]; 1x PBS) [°C] | ΔTm (° C.) ([1]; 8×PBS) [°C] | Tm (° C.)a ([1]; 1x PBS) [°C] | Tm (° C.)b ([1]; 8×PBS) [°C] | ΔTm (° C.) [2] [°C] | Tm (° C.) [2] [°C] |
| --- | --- | --- | --- | --- | --- | --- |
| AD-649408.1 (sense UACAGUCUAUGU; antisense ACAUAGACUGUA; chemistry not fully specified) | – | – | – | – | −4.5 | 48.07 |
| AD-649409.1 (sense UACAGUCUAUGU; antisense ACAUAGACUGUA; chemistry not fully specified) | – | – | – | – | −4.9 | 47.67 |
| AD-649411.1 (sense UACAGUCUAUGU; antisense ACAUAGACUGUA; chemistry not fully specified) | – | – | – | – | −11 | 41.57 |
| AD-649412.1 (sense UACAGUCUAUGU; antisense ACAUAGACUGUA; sense: RNA, backbone not given here; antisense: chemistry not given here; further chemistry not fully specified) | – | – | – | – | 0.55 | 53.17 |
| AD-649414.1 (sense UACAGUCUAUGU; antisense ACAUAGACUGUA; chemistry not fully specified) | – | – | – | – | 0.45 | 53.07 |
| AD-649415.1 (sense UACAGUCUAUGU; antisense ACAUAGACUGUA; sense: sugars from the 5' end r5 f1 r6, backbone not given here; antisense: sugars from the 5' end r6 f1 r5, backbone not given here) | – | – | – | – | 1.6 | 54.22 |
| AD-649416.1 (sense UACAGUCUAUGU; antisense ACAUAGACUGUA; sense: RNA, backbone not given here; antisense: sugars from the 5' end r5 f1 r6, backbone not given here) | – | – | – | – | 2.7 | 55.32 |
| AD-649417.1 (sense TACAGTCTATGT; antisense ACATAGACTGTA; chemistry not fully specified) | – | – | – | – | 0.65 | 43.07 |
| AD-649418.1 (sense TACAGTCTATGT; antisense ACATAGACTGTA; sense: chemistry not given here; antisense: DNA, backbone not given here; further chemistry not fully specified) | – | – | – | – | −1.78 | 40.64 |
| AD-649419.1 (sense TACAGTCTATGT; antisense ACATAGACTGTA; chemistry not fully specified) | – | – | – | – | 1.8 | 44.22 |
| AD-649420.1 (sense TACAGTCTATGT; antisense ACATAGACTGTA; chemistry not fully specified) | – | – | – | – | −2.5 | 39.92 |
| AD-649421.1 (sense TACAGTCTATGT; antisense ACATAGACTGTA; chemistry not fully specified) | – | – | – | – | −2.365 | 40.055 |
| AD-649422.1 (sense TACAGTCTATGT; antisense ACATAGACTGTA; sense: DNA, backbone not given here; antisense: sugars from the 5' end d6 f1 d5, backbone not given here) | – | – | – | – | −0.4 | 42.27 |
| AD-649423.1 (sense TACAGTCTATGT; antisense ACATAGACTGTA; sense: sugars from the 5' end d6 f1 d5, backbone not given here; antisense: DNA, backbone not given here) | – | – | – | – | −0.325 | 42.345 |
| AD-649424.1 (sense TACAGTCTATGT; antisense ACATAGACTGTA; sense: DNA, backbone not given here; antisense: sugars from the 5' end d5 f1 d6, backbone not given here) | – | – | – | – | 0.275 | 42.945 |
| AD-649425.1 (sense TACAGUCTATGT; antisense ACATAGACTGTA; sense: sugars from the 5' end d5 f1 d6, backbone not given here; antisense: sugars from the 5' end d6 f1 d5, backbone not given here) | – | – | – | – | −2.5 | 40.17 |
| AD-649426.1 (sense TACAGTCTATGT; antisense ACATAGACTGTA; sense: sugars from the 5' end d6 f1 d5, backbone not given here; antisense: sugars from the 5' end d5 f1 d6, backbone not given here) | – | – | – | – | 0.1 | 42.77 |
